Measurements: PubChem BioAssay (NCI)
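1) Cells in 96-well plates. 2) Compound, 48 h, 5 concentrations. 3) Linear interpolation between surrounding doses. 4) Unreached endpoint = highest concentration. Here, GI50 denotes the concentration required for 50% inhibition of growth. TGI marks complete inhibition of growth.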

Legend:
Assay in all cases: growth of human tumour cells (NCI), 48 h; in the data active = GI50 below about 0.43 µM; inactive = the rest
CAKI-1 renal = tested on: CAKI-1 renal
A549 NSCLC = tested on: A549 NSCLC
DU-145 prostate = tested on: DU-145 prostate
HOP-62 NSCLC = tested on: HOP-62 NSCLC
SNB-75 CNS = tested on: SNB-75 CNS
TK-10 renal = tested on: TK-10 renal
NCI/ADR-RES ovarian = tested on: NCI/ADR-RES ovarian
MDA-MB-435 = tested on: MDA-MB-435
NCI-H23 lung = tested on: NCI-H23 lung
KM12 colon = tested on: KM12 colon
COLO 205 colon = tested on: COLO 205 colon
RXF 393 renal = tested on: RXF 393 renal
MCF7 breast = tested on: MCF7 breast
UO-31 renal = tested on: UO-31 renal
SW-620 colon = tested on: SW-620 colon
SK-MEL-5 melanoma = tested on: SK-MEL-5 melanoma
HCC-2998 colon = tested on: HCC-2998 colon
SN12C renal = tested on: SN12C renal
SF-268 CNS = tested on: SF-268 CNS
OVCAR-3 ovarian = tested on: OVCAR-3 ovarian
T-47D breast = tested on: T-47D breast
U251 CNS = tested on: U251 CNS
K-562 leukemia = tested on: K-562 leukemia
OVCAR-5 ovarian = tested on: OVCAR-5 ovarian
CCRF-CEM leukemia = tested on: CCRF-CEM leukemia
HCT-116 colon = tested on: HCT-116 colon
UACC-62 melanoma = tested on: UACC-62 melanoma
NCI-H226 lung = tested on: NCI-H226 lung
786-0 renal = tested on: 786-0 renal
HT29 colon = tested on: HT29 colon
OVCAR-4 ovarian = tested on: OVCAR-4 ovarian
SR leukemia = tested on: SR leukemia
HCT-15 colon = tested on: HCT-15 colon
SF-295 CNS = tested on: SF-295 CNS
SK-MEL-28 melanoma = tested on: SK-MEL-28 melanoma
SNB-19 CNS = tested on: SNB-19 CNS
HS 578T breast = tested on: HS 578T breast
OVCAR-8 ovarian = tested on: OVCAR-8 ovarian
SF-539 CNS = tested on: SF-539 CNS
UACC-257 melanoma = tested on: UACC-257 melanoma
MALME-3M melanoma = tested on: MALME-3M melanoma
SK-OV-3 ovarian = tested on: SK-OV-3 ovarian
BT-549 breast = tested on: BT-549 breast
IGROV1 ovarian = tested on: IGROV1 ovarian
ACHN renal = tested on: ACHN renal
RPMI-8226 leukemia = tested on: RPMI-8226 leukemia
NCI-H522 lung = tested on: NCI-H522 lung
MOLT-4 leukemia = tested on: MOLT-4 leukemia
A498 renal = tested on: A498 renal
HL-60(TB) leukemia = tested on: HL-60(TB) leukemia
PC-3 prostate = tested on: PC-3 prostate
M14 melanoma = tested on: M14 melanoma
MDA-MB-231 breast = tested on: MDA-MB-231 breast
NCI-H460 lung = tested on: NCI-H460 lung
EKVX NSCLC = tested on: EKVX NSCLC
SK-MEL-2 melanoma = tested on: SK-MEL-2 melanoma
LOX IMVI melanoma = tested on: LOX IMVI melanoma

COc1cc(-c2cc(-c3nc4cc(Cl)c(Cl)cc4[nH]3)[nH]n2)cc(OC)c1OC
13.5 µM: TGI (RXF 393 renal)
4.39 µM: TGI (RPMI-8226 leukemia)
6.77 µM: TGI (OVCAR-4 ovarian)
11.5 µM: TGI (MCF7 breast) | TGI (SF-295 CNS)
20.1 µM: TGI (MDA-MB-231 breast)
12.4 µM: TGI (MALME-3M melanoma)
8.48 µM: TGI (UO-31 renal)
16.2 µM: TGI (786-0 renal)
13 µM: TGI (NCI-H23 lung)
14.6 µM: TGI (MDA-MB-435)
53 µM: TGI (SK-OV-3 ovarian)
12.7 µM: TGI (COLO 205 colon)
14.3 µM: TGI (UACC-257 melanoma)
15.4 µM: TGI (OVCAR-3 ovarian)
3.24 µM: TGI (SK-MEL-5 melanoma)
5 µM: TGI (T-47D breast)
12.5 µM: TGI (HT29 colon)
13.9 µM: TGI (KM12 colon)
11 µM: TGI (HOP-62 NSCLC) | TGI (U251 CNS)
20.6 µM: TGI (SR leukemia)
5.66 µM: TGI (NCI-H522 lung)
12.8 µM: TGI (ACHN renal)
7.89 µM: TGI (PC-3 prostate)
10.3 µM: TGI (HCT-116 colon)
15.5 µM: TGI (TK-10 renal)
6.75 µM: TGI (CCRF-CEM leukemia)
10.5 µM: TGI (A549 NSCLC)
12.9 µM: TGI (CAKI-1 renal) | TGI (NCI-H460 lung)
22.2 µM: TGI (SNB-19 CNS)
18.2 µM: TGI (IGROV1 ovarian)
24.9 µM: TGI (K-562 leukemia)
21.6 µM: TGI (OVCAR-5 ovarian)
11.8 µM: TGI (HCT-15 colon)
8.02 µM: TGI (BT-549 breast)
6.29 µM: TGI (MOLT-4 leukemia)
11.6 µM: TGI (HL-60(TB) leukemia)
8.8 µM: TGI (NCI-H226 lung)
12.3 µM: TGI (SK-MEL-28 melanoma)
14.9 µM: TGI (SF-268 CNS)
28.3 µM: TGI (A498 renal)
19.1 µM: TGI (SW-620 colon)
15.2 µM: TGI (DU-145 prostate)
7.48 µM: TGI (OVCAR-8 ovarian)
4.31 µM: TGI (UACC-62 melanoma)
inactive: GI50 (CAKI-1 renal) 3.81 µM | GI50 (A549 NSCLC) 2.87 µM | GI50 (DU-145 prostate) 4.16 µM | GI50 (HOP-62 NSCLC) 3.43 µM | GI50 (SNB-75 CNS) 3.12 µM | GI50 (TK-10 renal) 4.61 µM | GI50 (NCI/ADR-RES ovarian) 3.25 µM | GI50 (MDA-MB-435) 3.78 µM | GI50 (NCI-H23 lung) 3.4 µM | GI50 (KM12 colon) 3.56 µM | GI50 (COLO 205 colon) 3.77 µM | GI50 (RXF 393 renal) 3.17 µM | GI50 (MCF7 breast) 2.79 µM | GI50 (UO-31 renal) 2.47 µM | GI50 (SW-620 colon) 4.47 µM | GI50 (SK-MEL-5 melanoma) 1.56 µM | GI50 (HCC-2998 colon) 4.47 µM | GI50 (SN12C renal) 3.05 µM | GI50 (SF-268 CNS) 3.95 µM | GI50 (OVCAR-3 ovarian) 4.05 µM | GI50 (T-47D breast) 1.87 µM | GI50 (U251 CNS) 2.96 µM | GI50 (K-562 leukemia) 3.3 µM | GI50 (OVCAR-5 ovarian) 7.08 µM | GI50 (CCRF-CEM leukemia) 2.35 µM | GI50 (HCT-116 colon) 2.78 µM | GI50 (UACC-62 melanoma) 1.94 µM | GI50 (NCI-H226 lung) 2.29 µM | GI50 (786-0 renal) 4.09 µM | GI50 (HT29 colon) 3.42 µM | GI50 (OVCAR-4 ovarian) 2.21 µM | GI50 (SR leukemia) 3.89 µM | GI50 (HCT-15 colon) 2.89 µM | GI50 (SF-295 CNS) 3.04 µM | GI50 (SK-MEL-28 melanoma) 3.07 µM | GI50 (SNB-19 CNS) 5.47 µM | GI50 (HS 578T breast) 4.53 µM | GI50 (OVCAR-8 ovarian) 2.51 µM | GI50 (SF-539 CNS) 3.28 µM | GI50 (UACC-257 melanoma) 3.77 µM | GI50 (MALME-3M melanoma) 2.7 µM | GI50 (SK-OV-3 ovarian) 17.3 µM | GI50 (BT-549 breast) 2.84 µM | GI50 (IGROV1 ovarian) 3.86 µM | GI50 (ACHN renal) 3.54 µM | GI50 (RPMI-8226 leukemia) 1.75 µM | GI50 (NCI-H522 lung) 2.02 µM | GI50 (MOLT-4 leukemia) 2.49 µM | GI50 (A498 renal) 4.21 µM | GI50 (HL-60(TB) leukemia) 3.34 µM | GI50 (PC-3 prostate) 2.2 µM | GI50 (M14 melanoma) 3.57 µM | GI50 (MDA-MB-231 breast) 4.14 µM | GI50 (NCI-H460 lung) 3.33 µM
14.2 µM: TGI (SNB-75 CNS)
13.4 µM: TGI (SN12C renal) | TGI (SF-539 CNS)
> 100 µM: TGI (NCI/ADR-RES ovarian) | TGI (HS 578T breast)
13.3 µM: TGI (M14 melanoma)
15 µM: TGI (HCC-2998 colon)

C=CCC(N[C@@H](CO)c1ccccc1)c1ccccn1 (some centres not stated)
> 100 µM: TGI (CAKI-1 renal) | TGI (A549 NSCLC) | TGI (DU-145 prostate) | TGI (HOP-62 NSCLC) | TGI (SNB-75 CNS) | TGI (TK-10 renal) | TGI (NCI/ADR-RES ovarian) | TGI (MDA-MB-435) | TGI (NCI-H23 lung) | TGI (KM12 colon) | TGI (COLO 205 colon) | TGI (RXF 393 renal) | TGI (EKVX NSCLC) | TGI (UO-31 renal) | TGI (SW-620 colon) | TGI (SK-MEL-5 melanoma) | TGI (HCC-2998 colon) | TGI (SN12C renal) | TGI (OVCAR-3 ovarian) | TGI (T-47D breast) | TGI (U251 CNS) | TGI (K-562 leukemia) | TGI (OVCAR-5 ovarian) | TGI (CCRF-CEM leukemia) | TGI (HCT-116 colon) | TGI (UACC-62 melanoma) | TGI (NCI-H226 lung) | TGI (786-0 renal) | TGI (HT29 colon) | TGI (OVCAR-4 ovarian) | TGI (SR leukemia) | TGI (HCT-15 colon) | TGI (SF-295 CNS) | TGI (SK-MEL-28 melanoma) | TGI (HS 578T breast) | TGI (OVCAR-8 ovarian) | TGI (SF-539 CNS) | TGI (UACC-257 melanoma) | TGI (MALME-3M melanoma) | TGI (SK-OV-3 ovarian) | TGI (BT-549 breast) | TGI (IGROV1 ovarian) | TGI (SK-MEL-2 melanoma) | TGI (ACHN renal) | TGI (RPMI-8226 leukemia) | TGI (LOX IMVI melanoma) | TGI (NCI-H522 lung) | TGI (A498 renal) | TGI (HL-60(TB) leukemia) | TGI (PC-3 prostate) | TGI (M14 melanoma) | TGI (MDA-MB-231 breast)
inactive: GI50 (CAKI-1 renal) > 100 µM | GI50 (A549 NSCLC) > 100 µM | GI50 (DU-145 prostate) > 100 µM | GI50 (HOP-62 NSCLC) > 100 µM | GI50 (SNB-75 CNS) > 100 µM | GI50 (TK-10 renal) > 100 µM | GI50 (NCI/ADR-RES ovarian) > 100 µM | GI50 (MDA-MB-435) > 100 µM | GI50 (NCI-H23 lung) 60.2 µM | GI50 (KM12 colon) > 100 µM | GI50 (COLO 205 colon) > 100 µM | GI50 (RXF 393 renal) > 100 µM | GI50 (EKVX NSCLC) 75 µM | GI50 (UO-31 renal) 93.4 µM | GI50 (SW-620 colon) > 100 µM | GI50 (SK-MEL-5 melanoma) 56.9 µM | GI50 (HCC-2998 colon) > 100 µM | GI50 (SN12C renal) 22.9 µM | GI50 (OVCAR-3 ovarian) > 100 µM | GI50 (T-47D breast) > 100 µM | GI50 (U251 CNS) > 100 µM | GI50 (K-562 leukemia) 34 µM | GI50 (OVCAR-5 ovarian) > 100 µM | GI50 (CCRF-CEM leukemia) 74.4 µM | GI50 (HCT-116 colon) > 100 µM | GI50 (UACC-62 melanoma) > 100 µM | GI50 (NCI-H226 lung) > 100 µM | GI50 (786-0 renal) > 100 µM | GI50 (HT29 colon) > 100 µM | GI50 (OVCAR-4 ovarian) 25.6 µM | GI50 (SR leukemia) 18.3 µM | GI50 (HCT-15 colon) > 100 µM | GI50 (SF-295 CNS) > 100 µM | GI50 (SK-MEL-28 melanoma) > 100 µM | GI50 (HS 578T breast) > 100 µM | GI50 (OVCAR-8 ovarian) > 100 µM | GI50 (SF-539 CNS) > 100 µM | GI50 (UACC-257 melanoma) 74.8 µM | GI50 (MALME-3M melanoma) > 100 µM | GI50 (SK-OV-3 ovarian) > 100 µM | GI50 (BT-549 breast) > 100 µM | GI50 (IGROV1 ovarian) > 100 µM | GI50 (SK-MEL-2 melanoma) > 100 µM | GI50 (ACHN renal) > 100 µM | GI50 (RPMI-8226 leukemia) 32.7 µM | GI50 (LOX IMVI melanoma) > 100 µM | GI50 (NCI-H522 lung) 25.8 µM | GI50 (A498 renal) 46.8 µM | GI50 (HL-60(TB) leukemia) 24 µM | GI50 (PC-3 prostate) > 100 µM | GI50 (M14 melanoma) > 100 µM | GI50 (MDA-MB-231 breast) > 100 µM
